As a reminder, the pIC50 is −log10 of the IC50, conventionally taken in molar units.

Data on 54 compounds can be found in patent US12295396B2, “Antagonists of T2R54 and compositions and uses thereof” (Firmenich Incorporated, priority 2018, dated 2025).

pIC50: −log10 of the molar value.

In the assay the target is T1, hT2R54 (Homo sapiens, UniProt P59534).
T1 construct: expressed in transfected cells; it overexpresses a promiscuous G protein
T1 sequence (P59534 1-338): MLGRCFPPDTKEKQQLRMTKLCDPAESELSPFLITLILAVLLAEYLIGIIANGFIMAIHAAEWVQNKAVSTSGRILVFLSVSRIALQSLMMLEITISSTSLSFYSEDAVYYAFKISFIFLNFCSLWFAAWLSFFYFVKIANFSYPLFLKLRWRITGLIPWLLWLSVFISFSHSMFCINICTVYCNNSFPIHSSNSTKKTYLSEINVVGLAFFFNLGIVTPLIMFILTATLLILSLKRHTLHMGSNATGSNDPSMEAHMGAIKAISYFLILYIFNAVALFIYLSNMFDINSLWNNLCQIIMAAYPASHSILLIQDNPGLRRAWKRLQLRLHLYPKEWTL
The experiment in a line: Cell-based assay for measuring hT2R54 inhibition (FLIPR calcium, Fluo4AM, acetaminophen as bitter agonist). Conditions: Table 8; read-out: hT2R54 IC50. The essentials: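 Cells stably co-expressing hT2R54 and a promiscuous G protein were loaded with Fluo4AM and given acetaminophen dose series, alone or with fixed concentrations of test compound. On FLIPR, baseline was recorded for 10 s and fluorescence for 3 min after addition. IC50 is the concentration halving the acetaminophen-alone response.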
In the case of `CCCOC(=O)N1CCCC(CC(=O)Nc2cc3c(cc2C(C)=O)OCO3)C1` (stereo not drawn) [compound 214], the pIC50 was 6.49. On to `CC(=O)c1cc2c(cc1NC(=O)CC1CCCN(C(=O)OC(C)C)C1)OCO2` (stereo not drawn) [compound 215], for which the pIC50 is 6.80.

`CC(=O)c1cc2c(cc1NC(=O)CC1CCCN(C(=O)c3ccccc3)C1)OCO2` (stereo not drawn) [compound 216]: the pIC50 is 7.10. Then `CC(=O)c1cc2c(cc1NC(=O)CC1CCCN(C(=O)c3ccccc3O)C1)OCO2` (stereo not drawn) [compound 217], with 6.32; and `CC(=O)c1cc2c(cc1NC(=O)CC1CCCN(C(=O)c3cccc(O)c3)C1)OCO2` (stereo not drawn) [compound 218], with below 6.00. Then `CC(=O)c1cc2c(cc1NC(=O)CC1CCCN(C(=O)c3ccc(O)cc3)C1)OCO2` (stereo not drawn) [compound 219], with 5.84. `CC(=O)c1cc2c(cc1NC(=O)C[C@@H]1CCCN(C(=O)c3ccco3)C1)OCO2` [compound 220]: the pIC50 was around 8.00. Then `CC(=O)c1cc2c(cc1NC(=O)CC1CCCN(C(=O)c3cnn(C)c3)C1)OCO2` (stereo not drawn) [compound 221], with 7.22; and `CC(=O)c1cc2c(cc1NC(=O)CC1CCCN(S(C)(=O)=O)C1)OCO2` (stereo not drawn) [compound 222], with 7.22; and `CCS(=O)(=O)N1CCCC(CC(=O)Nc2cc3c(cc2C(C)=O)OCO3)C1` (stereo not drawn) [compound 223], with 7.40. To `CCCS(=O)(=O)N1CCCC(CC(=O)Nc2cc3c(cc2C(C)=O)OCO3)C1` (stereo not drawn) [compound 224] belongs 7.40.

As for `CCCCS(=O)(=O)N1CCCC(CC(=O)Nc2cc3c(cc2C(C)=O)OCO3)C1` (stereo not drawn) [compound 225], the pIC50 is 7.15.

Regarding `CC(=O)c1cc2c(cc1NC(=O)CC1CCCN(S(=O)(=O)CC(C)C)C1)OCO2` (stereo not drawn) [compound 226], the negative-log IC50 (pIC50) is 6.80.

Regarding `CC(=O)c1cc2c(cc1NC(=O)CC1CCCN(S(=O)(=O)c3ccco3)C1)OCO2` (stereo not drawn) [compound 227], the pIC50 is 6.89. Then `COCc1ccc(C(=O)N2CCCC(CC(=O)Nc3cc4c(cc3C(C)=O)OCO4)C2)o1` (stereo not drawn) [compound 228], with 7.70; and `CC(=O)c1cc2c(cc1NC(=O)CC1CN(C(=O)CC(C)C)CCO1)OCO2` (stereo not drawn) [compound 229], with 6.66. Then `CCOC(=O)N1CCOC(CC(=O)Nc2cc3c(cc2C(C)=O)OCO3)C1` (stereo not drawn) [compound 230], with 6.80; and `CC(=O)c1cc2c(cc1NC(=O)CC1CN(C(=O)c3ccco3)CCO1)OCO2` (stereo not drawn) [compound 231], with 6.62; and `CC(=O)c1cc2c(cc1NC(=O)CC1CCN(C(C)=O)CC1)OCO2` [compound 232], with below 6.00. Then `CCC(=O)N1CCC(CC(=O)Nc2cc3c(cc2C(C)=O)OCO3)CC1` [compound 233], with 7.07; and `CCCC(=O)N1CCC(CC(=O)Nc2cc3c(cc2C(C)=O)OCO3)CC1` [compound 234], with below 6.00; and `CCCCC(=O)N1CCC(CC(=O)Nc2cc3c(cc2C(C)=O)OCO3)CC1` [compound 235], with 7.11.

Regarding `CC(=O)c1cc2c(cc1NC(=O)CC1CCN(C(=O)C(C)C)CC1)OCO2` [compound 236], the pIC50 was below 6.00. Take `CC(=O)c1cc2c(cc1NC(=O)CC1CCN(C(=O)C(C)(C)C)CC1)OCO2` [compound 237]: the pIC50 is 6.72. As for `CC(=O)c1cc2c(cc1NC(=O)CC1CCN(C(=O)C3CC3)CC1)OCO2` [compound 238], the pIC50 was 6.33.

Regarding `CC(=O)c1cc2c(cc1NC(=O)CC1CCN(C(=O)C3CCCCC3)CC1)OCO2` [compound 239], the pIC50 was below 6.00. To `CCOC(=O)N1CCC(CC(=O)Nc2cc3c(cc2C(C)=O)OCO3)CC1` [compound 240] belongs 7.47; to `CCCOC(=O)N1CCC(CC(=O)Nc2cc3c(cc2C(C)=O)OCO3)CC1` [compound 241], 7.14. Then `CC(=O)c1cc2c(cc1NC(=O)CC1CCN(C(=O)C3CCCO3)CC1)OCO2` (stereo not drawn) [compound 242], with 7.17; and `CC(=O)c1cc2c(cc1NC(=O)CC1CCN(C(=O)C3CCCCO3)CC1)OCO2` (stereo not drawn) [compound 243], with 7.02; and `CC(=O)c1cc2c(cc1NC(=O)CC1CCN(C(=O)c3cccnc3)CC1)OCO2` [compound 244], with 7.29. Consider `COCc1cccc(C(=O)N2CCC(CC(=O)Nc3cc4c(cc3C(C)=O)OCO4)CC2)c1` [compound 245], for which the pIC50 is 7.36. Then `CC(=O)c1cc2c(cc1NC(=O)CC1CCN(C(=O)c3ccon3)CC1)OCO2` [compound 246], with 5.64; and `CC(=O)c1cc2c(cc1NC(=O)CC1CCN(C(=O)Cc3ccccc3)CC1)OCO2` [compound 247], with 6.31.

On to `CC(=O)c1cc2c(cc1NC(=O)CC1CCN(C(=O)Cc3ccccc3F)CC1)OCO2` [compound 248], for which the pIC50 is 6.38. Then `CC(=O)c1cc2c(cc1NC(=O)CC1CCN(C(=O)Cc3cccc(F)c3)CC1)OCO2` [compound 249], with 5.60; and `CC(=O)c1cc2c(cc1NC(=O)CC1CCN(C(=O)Cc3cccnc3)CC1)OCO2` [compound 250], with 6.12; and `CC(=O)c1cc2c(cc1NC(=O)CC1CCN(C(=O)Cc3ccncc3)CC1)OCO2` [compound 251], with 6.24. To `CC(=O)c1cc2c(cc1NC(=O)CC1CCN(C(=O)Cc3ccccc3O)CC1)OCO2` [compound 252] belongs 5.96; to `CC(=O)c1cc2c(cc1NC(=O)CC1CCN(C(=O)Cc3cccc(O)c3)CC1)OCO2` [compound 253], 6.12; to `CC(=O)c1cc2c(cc1NC(=O)CC1CCN(C(=O)Cc3ccc(O)cc3)CC1)OCO2` [compound 254], 6.49.

Consider `COc1ccccc1CC(=O)N1CCC(CC(=O)Nc2cc3c(cc2C(C)=O)OCO3)CC1` [compound 255], for which the pIC50 was 5.89. Then `COc1cccc(CC(=O)N2CCC(CC(=O)Nc3cc4c(cc3C(C)=O)OCO4)CC2)c1` [compound 256], with 6.42. To `COc1ccc(CC(=O)N2CCC(CC(=O)Nc3cc4c(cc3C(C)=O)OCO4)CC2)cc1` [compound 257] belongs 5.80; to `CC(=O)c1cc2c(cc1NC(=O)CC1CCN(C(C)=O)C1)OCO2` (stereo not drawn) [compound 258], 6.03; to `CCC(=O)N1CCC(CC(=O)Nc2cc3c(cc2C(C)=O)OCO3)C1` (stereo not drawn) [compound 259], 5.59.

On to `CCCC(=O)N1CCC(CC(=O)Nc2cc3c(cc2C(C)=O)OCO3)C1` (stereo not drawn) [compound 260], for which the pIC50 was 6.07. Then `CC(=O)c1cc2c(cc1NC(=O)CC1CCN(C(=O)C(C)C)C1)OCO2` (stereo not drawn) [compound 261], with 6.02; and `CC(=O)c1cc2c(cc1NC(=O)CC1CCN(C(=O)C(C)(C)C)C1)OCO2` (stereo not drawn) [compound 262], with 6.54.

As to `CC(=O)c1cc2c(cc1NC(=O)CC1CCN(C(=O)CC(C)C)C1)OCO2` (stereo not drawn) [compound 263], the pIC50 is 6.43. Take `CC(=O)c1cc2c(cc1NC(=O)CC1CCN(C(=O)CC(C)(C)C)C1)OCO2` (stereo not drawn) [compound 264]: the pIC50 was 6.42. On to `CC(=O)c1cc2c(cc1NC(=O)CC1CCN(C(=O)C3CC3)C1)OCO2` (stereo not drawn) [compound 265], for which the pIC50 was 6.17. Then `CC(=O)c1cc2c(cc1NC(=O)CC1CCN(C(=O)C3CCCC3)C1)OCO2` (stereo not drawn) [compound 266], with 6.30; and `CC(=O)c1cc2c(cc1NC(=O)CC1CCN(C(=O)C3CCCCC3)C1)OCO2` (stereo not drawn) [compound 267], with 5.65.
